US8821887B2, “T-cell antigen peptide from allergen for stimulation of IL-10 production” (Circassia Limited, priority 2008, dated 2014)
Non-standard residues stand in square brackets, D forms with d. No end group written: not given here. 5‑aminobutyric acid = not defined here

system: PBMC's; assay: Cytokine release assay (IL-10 release from PBMCs, ELISA or multiplex bead array); assay type: cell-based; settings: house dust mite peptides of Example 1; PBMCs of dust mite allergic individuals; 5 days stimulation; FIGS. 1 and 2
Procedure: FIGS. 1 and 2 show mean IL-10 release (y axis, pg/ml) in response to the house dust mite peptides shown on the x axis, for a population of dust mite allergic individuals.
FIGS. 3 and 4 show mean IL-10 release (y axis, pg/ml) in response to the ragweed peptides shown on the x axis, for a population of ragweed allergic individuals.
Cytokine secretion profiles from PBMC's are analysed in response to the peptide stimulation using the peptides from Examples 1 and 2. Supernatants from the cytokine release assay were tested for the presence of IL-10, using either an ELISA assay or a multiplex bead array assay. A typical cytokine release assay requires 40×10^6 PBMC's per subject. In more detail, 250 μl of a 200 μg/ml solution of the appropriate antigen or peptide concentration is distributed into the appropriate wells of 48 well plates. Plates are then incubated in a humidified 5% CO2 incubator at 37° C. for a maximum of 4 hours. 250 μl of a 5×10^6 cell/ml PBMC suspension is then added to each well and the plates returned to the incubator for 5 days. Following stimulation, samples of culture supernatant are harvested for testing by ELISA or multiplex bead assay according to standard protocols.

Sequence	IL-10 production compared with other peptides	IL-10 release compared with whole allergen
DEFKNRFLMSAEAFE [HDM202]	higher IL-10 production than other peptides	higher IL-10 release than whole allergen
ELVDSASQHG (Description of Artificial Sequence: Synthetic HDM03W peptide)	higher IL-10 production than other peptides	higher IL-10 release than whole allergen
EQELVDSASQHG [HDM03V]	higher IL-10 production than other peptides	
RNQSLDLAEQELVD ? ASQH (RNQSLDLAEQELVD[5‑aminobutyric acid]ASQH; not fully specified; reading uncertain) [HDM03E, character = 2-aminobutryic acid]	higher IL-10 production than other peptides	higher IL-10 release than whole allergen
RNQSLDLAEQELVDSASQH (Description of Artificial Sequence: Synthetic HDM03D peptide)	higher IL-10 production than other peptides	

same assay, conditions: ragweed peptides of Example 2; PBMCs of ragweed allergic individuals; 5 days stimulation; FIGS. 3 and 4

Sequence	IL-10 production compared with other peptides	IL-10 release compared with whole allergen
GEAAIKLTSSAGVLS [RGW07]	higher IL-10 production than other peptides	
GESALSLTSSAGVLS [RGW07B]	higher IL-10 production than other peptides	
KGEAAIKLTSSAGVLSK [RGW07C]	higher IL-10 production than other peptides	
KGEAAIKLTSSAGVLSKK [RGW07D]	higher IL-10 production than other peptides	higher IL-10 release than whole allergen
